From article PMC7024211, “Antifouling Napyradiomycins from Marine-Derived Actinomycetes Streptomyces aculeolatus” (Marine Drugs, 2020)
Converted amounts (≈) assume the structure as drawn.

Columns and labels:
P. inhibens [1] = assay: Bacterial growth inhibition assay (OD600nm); format: cell-based, Phaeobacter inhibens; conditions: 31.25 µg/mL
Experimental: (§1) As a first screening approach, liquid cultures of M. hydrocarbonoclasticus, and C. marina in a 96-well format were analyzed for bacterial growth inhibition by percent decrease in OD600 after incubation with napyradiomycins (1–12) at 31.25 µg/mL.
Five marine bacterial species were used as models to assess antimicrofouling activity. The biofilm-forming marine bacteria Marinobacter hydrocarbonoclasticus DSM 8798 (ATCC 49840), Cobetia marina DSM 4741, Phaeobacter inhibens DSM 17,395, and Pseusooceanicola batsensis DSM 15,984 were obtained from DSMZ (Leibniz Institute DSMZ—German collection of Microorganisms and Cell Cultures) and Micrococcus luteus. […]
The antibacterial activity of the napyradiomycins (1–12) was assessed in 96-well polystyrene flat bottom microplates (Nunclon Delta Surface, Thermo Scientific, Roskilde, Denmark) following previously reported procedures. […] After 24 h (M. hydrocarbonoclasticus, C. marina) or 48 h (P. batsensis, P. inhibens, M. luteus) incubation, the OD600nm was determined (Molecular Devices, Spectra Max 190). […] The percentage of growth inhibition was calculated as the amount of growth relative to that of the bacterial species without added compounds (with the same amount of DMSO added). […]

C. marina [2] = assay: Bacterial growth inhibition assay (OD600nm); format: cell-based, Cobetia marina; conditions: 31.25 µg/mL
Excerpt: (§2) Five marine bacterial species were used as models to assess antimicrofouling activity. The biofilm-forming marine bacteria Marinobacter hydrocarbonoclasticus DSM 8798 (ATCC 49840), Cobetia marina DSM 4741, Phaeobacter inhibens DSM 17,395, and Pseusooceanicola batsensis DSM 15,984 were obtained from DSMZ (Leibniz Institute DSMZ—German collection of Microorganisms and Cell Cultures) and Micrococcus luteus. Cultures were routinely grown in liquid marine broth (Carl Roth GmbH, Karlsruhe, Germany) with agitation (180 rpm) or on agar-supplemented marine broth, at 28 °C (M. hydrocarbonoclasticus and C. marina) or 30 °C (P. inhibens and P. batsensis). M. luteus was maintained in Brain Heart Infusion broth (BHI, Becton Dickinson, GmbH, Heidelberg, Germany) with agitation (180 rpm) or on agar-supplemented BHI, at 37 °C.
(§3) The antibacterial activity of the napyradiomycins (1–12) was assessed in 96-well polystyrene flat bottom microplates (Nunclon Delta Surface, Thermo Scientific, Roskilde, Denmark) following previously reported procedures. […] After 24 h (M. hydrocarbonoclasticus, C. marina) or 48 h (P. batsensis, P. inhibens, M. luteus) incubation, the OD600nm was determined (Molecular Devices, Spectra Max 190). […] The percentage of growth inhibition was calculated as the amount of growth relative to that of the bacterial species without added compounds (with the same amount of DMSO added). CuSO4 (5 μM), a potent antifouling agent used in antifouling paints, was used as reference.
(§4) All assays were performed in triplicate, and results are representative of the average and standard error of the mean (SEM). Statistical analysis was performed in GraphPad Prism 8.0.2 (San Diego, CA, USA), using one-way ANOVA followed by a Dunnett’s multiple comparisons test against the control (species grown with the same amount of DMSO added).

M. hydrocarbonoclasticus [3] = assay: Bacterial growth inhibition assay (OD600nm); format: cell-based, Marinobacter hydrocarbonoclasticus; conditions: 31.25 µg/mL
Experimental: as §1, §2
(§5) The antibacterial activity of the napyradiomycins (1–12) was assessed in 96-well polystyrene flat bottom microplates (Nunclon Delta Surface, Thermo Scientific, Roskilde, Denmark) following previously reported procedures. For initial screening, bacterial overnight cultures were diluted to an optical density (OD600nm) of 0.2 and incubated statically at 28 °C (M. hydrocarbonoclasticus, C. marina), 30 °C (P. inhibens, P. batsensis) or 37 °C (M. luteus) in a 96-well microplate in the presence or absence of 31.25 µg/mL of the napyradiomycins, solubilized in DMSO. After 24 h (M. hydrocarbonoclasticus, C. marina) or 48 h (P. batsensis, P. inhibens, M. luteus) incubation, the OD600nm was determined (Molecular Devices, Spectra Max 190). […] The percentage of growth inhibition was calculated as the amount of growth relative to that of the bacterial species without added compounds (with the same amount of DMSO added). CuSO4 (5 μM), a potent antifouling agent used in antifouling paints, was used as reference.
as §4

M. hydrocarbonoclasticus [4] = assay: Biofilm inhibition assay (crystal violet); format: cell-based, Marinobacter hydrocarbonoclasticus; conditions: Marinobacter nauticus
Experimental: (§6) In a 96-well plate, biofilm grown cultures of M. hydrocarbonoclasticus and C. marina were incubated with napyradiomycins (1–12) at a concentration of 31.25 µg/mL. After discarding the media, biofilm inhibition was determined from OD600 measurements of crystal violet stained cells resuspended from the plate bottom with acetic acid.
as §2
(§7) The antibiofilm activity of napyradiomycins (1–12) against the five marine bacterial species was assessed in 96-well polystyrene flat bottom microplates (Nunclon Delta Surface, Thermo Scientific, Roskilde, Denmark) as previously reported. For initial screening, bacterial overnight cultures were diluted to an optical density (OD600nm) value of 0.2 and incubated statically at 28 °C (M. hydrocarbonoclasticus, C. marina), 30 °C (P. inhibens, P. batsensis) or 37 °C (M. luteus) in the 96-well microplate in the presence or absence of 31.25 µg/mL of napyradiomycins, solubilized in DMSO. After 24 h (M. hydrocarbonoclasticus, C. marina) or 48 h (P. batsensis, P. inhibens, M. luteus) incubation, the OD600nm was determined. The planktonic cells and media were discarded, and the wells were washed twice with deionized water. The biofilm was fixed for 1 h at 60 °C and stained with crystal violet 0.06% for 10 min. The dye was discarded, and the wells were again washed twice with deionized water. The stained biofilm was solubilized with 30% acetic acid and the OD600nm was determined. […] The percentage of biofilm inhibition was calculated as the amount of biofilm relative to that of the bacterial species without added compounds (with the same amount of DMSO added). CuSO4 (5 μM), a potent antifouling agent used in antifouling paints, was used as reference.
as §4, with “8.0.2,” for “8.0.2 (San Diego, CA, USA),”

C. marina [5] = assay: Biofilm inhibition assay (crystal violet); format: cell-based, Cobetia marina; conditions: 31.25 µg/mL
Experimental: as §6, §2, §7
as §4, with “8.0.2,” for “8.0.2 (San Diego, CA, USA),”

P. inhibens [6] = assay: Biofilm inhibition assay (crystal violet); format: cell-based, Phaeobacter inhibens; conditions: 31.25 µg/mL
Experimental: as §6, §2, §7
All assays were performed in triplicate, and results are representative of the average and standard error of the mean (SEM). […]

M. luteus [7] = assay: Bacterial growth inhibition assay (OD600nm); format: cell-based, Micrococcus luteus; conditions: 31.25 µg/mL
Excerpt: as §2, §3, §4

P. batsensis [8] = assay: Bacterial growth inhibition assay (OD600nm); format: cell-based, Pseudooceanicola batsensis; conditions: 31.25 µg/mL
Experimental: as §1, §2, §5, §4

M. luteus [9] = assay: Biofilm inhibition assay (crystal violet); format: cell-based, Micrococcus luteus; conditions: 31.25 µg/mL
Experimental: as §6, §2, §7
as §4, with “8.0.2,” for “8.0.2 (San Diego, CA, USA),”

P. batsensis [10] = assay: Biofilm inhibition assay (crystal violet); format: cell-based, Pseudooceanicola batsensis; conditions: 31.25 µg/mL
Experimental: as §6, §2, §7
as §4, with “8.0.2,” for “8.0.2 (San Diego, CA, USA),”

[11] = system: M. galloprovincialis plantigrade larvae; assay: Mussel plantigrade larvae settlement, 15 h acute exposure assay; format: in vivo; conditions: Mytilus galloprovincialis, 15 h, 95% LCL, UCL in brackets, read-out: EC50 [Conf. limits] larval settlement
Experimental: (§8) Mussel (M. galloprovincialis) adhesive larvae (plantigrades) were used to assess in vivo the antifouling activity of napyradiomycins (1–12) towards macrofouling. Juvenile mussel aggregates were collected at the intertidal rocky shore during low spring tides, at Memória beach, Matosinhos, Portugal (41°13′59″ N; 8°43′28″ W). At the laboratory, immediately before the bioassays, mussel plantigrade larvae were screened and isolated from the juvenile aggregates using a binocular microscope (Olympus SZX2-ILLT, Hamburg, Germany) and washed with filtered seawater to remove organic debris. Only competent plantigrade larvae (those showing foot exploratory behavior) were selected and used in the exposure bioassays following previously validated procedures. Plantigrades were exposed in 24-well polystyrene plates for 15 h in the darkness at 18 °C. DMSO was used as solvent for crude extracts, fractions and pure compounds stock and working solutions. Working solutions were prepared by successive dilutions of stock solutions in DMSO and then diluted in filtered seawater to obtain the test solutions. DMSO concentration in test solutions was always 0.1%. Four well replicates were used per condition with five larvae per well. Two negative controls, one with ultra-pure water and the other with DMSO 0.1% were included in all bioassays, as well as a positive control with 5 μM CuSO4 (a potent antifouling agent). Anti-settlement bioactivity was determined by the presence/absence of fixed byssal threads produced by each individual larvae for all the conditions tested. […] Chi-square Pearsons goodness-of-fit test was applied to data in order to determine EC50. Significance was considered at p < 0.01 for all analyses, and 95% lower and upper confidence limits [95% LCL; UCL] were presented. Therapeutic ratio (LC50/EC50) was used to evaluate the effectiveness vs. toxicity of compounds [19, 21].

[12] = as above; format: in vivo; conditions: Mytilus galloprovincialis (mussel, plantigrade larvae), in vivo, no mortality at highest tested concentration 12 µg/mL
Experimental: as §8

M. edulis = system: M. edulis; parameters: method as in doi:10.1016/S0044-8486(97)00209-3; conditions: against M. edulis ref 62; cited from earlier work

Row | Molecule | % growth inhibition P. inhibens (P. inhibens [1]) | % growth inhibition C. marina (C. marina [2]) | % growth inhibition M. hydrocarbonoclasticus (M. hydrocarbonoclasticus [3]) | inhibition at 0.98 µg/mL (M. hydrocarbonoclasticus [4]; 0.98 µg/mL, read-out: % inhibition of biofilm formation M. hydro.) [%] | inhibition at 1.95 µg/mL (M. hydrocarbonoclasticus [4]; 1.95 µg/mL, read-out: % inhibition of biofilm formation M. hydro.) [%] | inhibition at 15.6 µg/mL (M. hydrocarbonoclasticus [4]; 15.6 µg/mL, read-out: % inhibition of biofilm formation M. hydro.) [%] | inhibition at 31.25 µg/mL (M. hydrocarbonoclasticus [4]; 31.25 µg/mL, read-out: % Biofilm Inhibition ± SEM M. hydrocarbonoclasticus) [%] | % Biofilm Inhibition ± SEM C. marina (C. marina [5]) | % Biofilm Inhibition ± SEM P. inhibens (P. inhibens [6]) | % growth inhibition M. luteus (M. luteus [7]) | % growth inhibition P. batsensis (P. batsensis [8]) | % Biofilm Inhibition ± SEM M. luteus (M. luteus [9]) | % Biofilm Inhibition ± SEM P. batsensis (P. batsensis [10]) | EC50 [11] [µg/mL] | LC50 at 15 h [12] [µg/mL] | EC50 (M. edulis) [µg/mL]
1 | CC(=CCCC(C)=CCC12OC(C)(C)C(Cl)CC1(Cl)C(=O)c1c(O)cc(O)cc1C2=O)CO (stereo not shown) [Napyradiomycin 2, 18-hydroxynapyradiomycin A1] | did not inhibit growth | did not inhibit growth | did not inhibit growth | 24.6 ± 9.8 | 56.5 ± 5.7 | 56.6 ± 0.9 | 60.2 ± 5.7 | N.I. | N.I. | did not inhibit growth | did not inhibit growth | N.I. | N.I. | 2 (≈ 4.02 µM) | > 12 | 
2 | ivermectin |  |  |  |  |  |  |  |  |  |  |  |  |  |  |  | 0.4
